Patent US20120029187A1, “HALOALKYLSULFONANILIDE DERIVATIVE” (Nissan Chemical Industries, Ltd., priority 2009, published 2012)

How the values were obtained:
Format in all cases: in vivo
water foxtail [1] = assay: Test Example 4: herbicidal effect in foliage treatment; settings: dose 3.2 g/a
Method in brief: (§1)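 Sowing in sterilized diluvial soil, ~1.5 cm cover; growth 14 d, 25–30° C greenhouse; foliar spray of water-diluted EC at predetermined g/a; scoring 3 wk later on graded scale.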

giant foxtail [2] = assay: as above; settings: dose 3.2 g/a
Method in brief: as §1

velvetleaf [3] = assay: as above; settings: dose 3.2 g/a
Method in brief: as §1

redroot pigweed [4] = assay: as above; settings: dose 3.2 g/a
Method in brief: as §1

common ragweed [5] = assay: as above; settings: dose 3.2 g/a
Method in brief: as §1

common lambsquater [6] = assay: as above; settings: dose 3.2 g/a
Method in brief: as §1

barnyardgrass [7] = assay: as above; settings: dose 3.2 g/a
Method in brief: as §1

common chickweed [8] = assay: as above; settings: dose 3.2 g/a
Method in brief: as §1

posumbu knotweed = assay: as above; settings: dose 3.2 g/a
Method in brief: as §1

Italian ryegrass [9] = assay: as above; settings: dose 3.2 g/a
Method in brief: as §1

large crabgrass [10] = assay: as above; settings: dose 3.2 g/a
Method in brief: as §1

transplanted rice = assay: Test Example 1: preemergence treatment under submerged conditions, effect on crop; settings: dose 2.52 g/a
Method in brief: (§2)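 Score 0–5 by mortality (5: ≥90%; 0: <5%), read 3 weeks post-application. Paddy-type cups: alluvial soil under 4 cm water, weeds seeded plus transplanted 2.5-leaf rice; diluted EC dosed onto water surface same day as sowing, g/a basis; greenhouse 25 to 30° C.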

bulrush [11] = assay: Test Example 1: herbicidal effects in preemergence treatment under submerged conditions; settings: dose 2.52 g/a
Method in brief: as §2

barnyardgrass [12] = assay: as above; settings: dose 2.52 g/a
Method in brief: as §2

ducksalad [13] = assay: as above; settings: dose 2.52 g/a
Method in brief: as §2

water foxtail [14] = assay: Test Example 3: herbicidal effects in soil treatment; settings: dose 3.2 g/a
Method in brief: (§3)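 Seeds were sown in sterilized diluvial soil and covered with about 1.5 cm of soil. Compounds, formulated as emulsifiable concentrates and diluted with water, were sprayed evenly over the soil surface at set doses in g/a. Herbicidal effect was scored on a rating scale three weeks later.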

giant foxtail [15] = assay: as above; settings: dose 3.2 g/a
Method in brief: as §3

velvetleaf [16] = assay: as above; settings: dose 3.2 g/a
Method in brief: as §3

redroot pigweed [17] = assay: as above; settings: dose 3.2 g/a
Method in brief: as §3

common ragweed [18] = assay: as above; settings: dose 3.2 g/a
Method in brief: as §3

beadstraw = assay: as above; settings: dose 3.2 g/a
Method in brief: as §3

common lambsquater [19] = assay: as above; settings: dose 3.2 g/a
Method in brief: as §3

barnyardgrass [20] = assay: as above; settings: dose 3.2 g/a
Method in brief: as §3

common chickweed [21] = assay: as above; settings: dose 3.2 g/a
Method in brief: as §3

Italian ryegrass [22] = assay: as above; settings: dose 3.2 g/a
Method in brief: as §3

large crabgrass [23] = assay: as above; settings: dose 3.2 g/a
Method in brief: as §3

bulrush [24] = assay: Test Example 2: herbicidal effects during the vegetation period under submerged conditions; settings: treatment during the vegetation period under submerged conditions; dose 2.52 g/a
Method in brief: (§4)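 Barnyardgrass, bulrush and ducksalad were co-sown in alluvial soil flooded to 4 cm and grown in a greenhouse at 25 to 30° C. At the 1- or 2-leaf stage, water-diluted emulsifiable concentrates went onto the water surface at set doses (g/a). Herbicidal effect was scored three weeks later on a graded scale.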

barnyardgrass [25] = assay: as above; settings: treatment during the vegetation period under submerged conditions; dose 2.52 g/a
Method in brief: as §4

ducksalad [26] = assay: as above; settings: treatment during the vegetation period under submerged conditions; dose 2.52 g/a
Method in brief: as §4

[27] = three weeks after the application

Structure (SMILES) | a: transplanted rice, effect on crop (evaluation scale 0-5) (transplanted rice) | B: bulrush, herbicidal effect (evaluation scale 0-5) (bulrush [11]) | A: barnyardgrass, herbicidal effect (evaluation scale 0-5) (barnyardgrass [12]) | C: ducksalad, herbicidal effect (evaluation scale 0-5) (ducksalad [13]) | G: water foxtail, herbicidal effect (evaluation scale 0-5) (water foxtail [14]) | E: giant foxtail, herbicidal effect (evaluation scale 0-5) (giant foxtail [15]) | I: velvetleaf, herbicidal effect (evaluation scale 0-5) (velvetleaf [16]) | K: redroot pigweed, herbicidal effect (evaluation scale 0-5) (redroot pigweed [17]) | J: common ragweed, herbicidal effect (evaluation scale 0-5) (common ragweed [18]) | O: beadstraw, herbicidal effect (evaluation scale 0-5) (beadstraw) | L: common lambsquater, herbicidal effect (evaluation scale 0-5) (common lambsquater [19]) | A: barnyardgrass, herbicidal effect (evaluation scale 0-5) (barnyardgrass [20]) | N: common chickweed, herbicidal effect (evaluation scale 0-5) (common chickweed [21]) | H: Italian ryegrass, herbicidal effect (evaluation scale 0-5) (Italian ryegrass [22]) | D: large crabgrass, herbicidal effect (evaluation scale 0-5) (large crabgrass [23]) | B: bulrush, herbicidal effect (evaluation scale 0-5) (bulrush [24]) | A: barnyardgrass, herbicidal effect (evaluation scale 0-5) (barnyardgrass [25]) | C: ducksalad, herbicidal effect (evaluation scale 0-5) (ducksalad [26]) | further results
CC1(c2ccccc2)CC(=O)N(Cc2ccccc2NS(=O)(=O)C(F)(F)F)CO1 (stereo not shown) [II-57] | 0 (mortality of less than 5% (almost ineffective)) | 5 (mortality of 90% or above (nearly complete death)) | 5 (mortality of 90% or above (nearly complete death)) | 5 (mortality of 90% or above (nearly complete death)) | 5 (mortality of 90% or above (nearly complete death)) | 5 (mortality of 90% or above (nearly complete death)) | 5 (mortality of 90% or above (nearly complete death)) | 0 (mortality of less than 5% (almost ineffective)) | 0 (mortality of less than 5% (almost ineffective)) | 0 (mortality of less than 5% (almost ineffective)) | 0 (mortality of less than 5% (almost ineffective)) | 2 (mortality of at least 20% and less than 40%) | 4 (mortality of at least 70% and less than 90%) | 5 (mortality of 90% or above (nearly complete death)) | 3 (mortality of at least 40% and less than 70%) | 5 (mortality of 90% or above (nearly complete death)) | 2 (mortality of at least 20% and less than 40%) | 5 (mortality of 90% or above (nearly complete death)) | G: water foxtail, herbicidal effect (water foxtail [1]; three weeks after application): 3 (mortality of at least 40% and less than 70%); E: giant foxtail, herbicidal effect (giant foxtail [2]; three weeks after application): 2 (mortality of at least 20% and less than 40%); I: velvetleaf, herbicidal effect (velvetleaf [3]; three weeks after application): 3 (mortality of at least 40% and less than 70%); K: redroot pigweed, herbicidal effect (redroot pigweed [4]; three weeks after application): 0 (mortality of less than 5% (almost ineffective)); J: common ragweed, herbicidal effect (common ragweed [5]; three weeks after application): 3 (mortality of at least 40% and less than 70%); L: common lambsquater, herbicidal effect (common lambsquater [6]; three weeks after application): 3 (mortality of at least 40% and less than 70%); A: barnyardgrass, herbicidal effect (barnyardgrass [7]; three weeks after application): 4 (mortality of at least 70% and less than 90%); N: common chickweed, herbicidal effect (common chickweed [8]; three weeks after application): 4 (mortality of at least 70% and less than 90%); M: posumbu knotweed, herbicidal effect (posumbu knotweed; three weeks after application): 3 (mortality of at least 40% and less than 70%); H: Italian ryegrass, herbicidal effect (Italian ryegrass [9]; three weeks after application): 5 (mortality of 90% or above (nearly complete death)); D: large crabgrass, herbicidal effect (large crabgrass [10]; three weeks after application): 2 (mortality of at least 20% and less than 40%)
CCC(=O)N(c1ccccc1CN1C(=O)CC(C)(C)OC1C)S(=O)(=O)C(F)(F)F (stereo not shown) [II-73] | 3 (mortality of at least 40% and less than 70%) | 5 (mortality of 90% or above (nearly complete death)) | 5 (mortality of 90% or above (nearly complete death)) | 5 (mortality of 90% or above (nearly complete death)) | 5 (mortality of 90% or above (nearly complete death)) | 5 (mortality of 90% or above (nearly complete death)) | 5 (mortality of 90% or above (nearly complete death)) | 0 (mortality of less than 5% (almost ineffective)) | 3 (mortality of at least 40% and less than 70%) | 4 (mortality of at least 70% and less than 90%) | 0 (mortality of less than 5% (almost ineffective)) | 5 (mortality of 90% or above (nearly complete death)) | 0 (mortality of less than 5% (almost ineffective)) | 5 (mortality of 90% or above (nearly complete death)) | 5 (mortality of 90% or above (nearly complete death)) | 5 (mortality of 90% or above (nearly complete death)) | 5 (mortality of 90% or above (nearly complete death)) | 5 (mortality of 90% or above (nearly complete death)) | G: water foxtail, herbicidal effect (water foxtail [1]; [27]): 5 (mortality of 90% or above (nearly complete death)); E: giant foxtail, herbicidal effect (giant foxtail [2]; [27]): 4 (mortality of at least 70% and less than 90%); I: velvetleaf, herbicidal effect (velvetleaf [3]; [27]): 5 (mortality of 90% or above (nearly complete death)); K: redroot pigweed, herbicidal effect (redroot pigweed [4]; [27]): 0 (mortality of less than 5% (almost ineffective)); J: common ragweed, herbicidal effect (common ragweed [5]; [27]): 2 (mortality of at least 20% and less than 40%); L: common lambsquater, herbicidal effect (common lambsquater [6]; [27]): 0 (mortality of less than 5% (almost ineffective)); A: barnyardgrass, herbicidal effect (barnyardgrass [7]; [27]): 5 (mortality of 90% or above (nearly complete death)); N: common chickweed, herbicidal effect (common chickweed [8]; [27]): 2 (mortality of at least 20% and less than 40%); M: posumbu knotweed, herbicidal effect (posumbu knotweed; [27]): 4 (mortality of at least 70% and less than 90%); H: Italian ryegrass, herbicidal effect (Italian ryegrass [9]; [27]): 5 (mortality of 90% or above (nearly complete death)); D: large crabgrass, herbicidal effect (large crabgrass [10]; [27]): 4 (mortality of at least 70% and less than 90%)
